Source: patent US8633208B2, “6-1H-imidazo-quinazoline and quinolines derivatives, new MAO inhibitors and imidazoline receptor ligands” (Rottapharm S.p.A, priority 2008, dated 2014)
Structures can show the parent of a compound that is named as a salt. Where two headings read alike, the source gives them in different places.

Legend:
[1] = test system: rats; experiment: CFA model of inflammatory pain in rats (Randall-Selitto), potentiation of a low dose of morphine; type: in vivo
[2] = test system: CD1 Mice; settings: commercially available antidepressant drugs, subcutaneous; Millan MJ et al., 2001 JPET, 298(2): 581-591; cited from earlier work
[3] = molecular target: I2 Imidazoline Receptor; experiment: Binding study towards I2 imidazoline receptor subtype in rat brain ([3H]2-BFI displacement); settings: read-out: [3H]2-BFI binding IC50; rat whole brain membranes, [3H]-2BFI 2.5x10-9 M, 90 min at 25° C.
Protocol: Binding Study Towards I2 Imidazoline Receptor Subtype in Rat Brain.
Male Wistar rats (240-300 g, Harlan, Italy) were sacrificed by decapitation. Whole brains were immediately removed on ice and homogenised in 10 volumes of buffered sucrose (0.32M in 50 mM Tris-HCl, pH 7.4 at 4° C.) using a motor driven Teflon-glass homogeniser. The homogenate was centrifuged at 1000×g for 10 min at 4° C. The resultant supernatants were pooled and centrifuged at 32000×g for 20 min at 4° C. The supernatants were discarded and each pellet suspended in 10 volumes of assay buffer (50 mM Tris-HCl, 1 mM MgCl2, pH 7.4 at 4° C.) and spun at 32000×g for 20 min at 4° C. The pellets were washed twice by repeated centrifugation at 32000×g for 20 min at 4° C. The final pellets were stored at −80° C. until use. Prior to radioligand binding studies, membrane pellets were thawed and washed a further 4 times by re-suspension in 10 volumes of assay buffer (as above) and repeated centrifugation to remove any possible endogenous inhibitors of binding. […] Non specific binding was determined in the presence of 10^-5 M BU224 (Tocris Bioscience). The incubation, in a final volume of 1 ml, was performed in polystyrene multiwell 24, started adding membranes suspension and was carried out for 90 min at 25° C. With the exception of total binding and non specific binding, all concentration points were performed in duplicate. Compounds were tested in 3-5 different concentrations, ranging from 10^-10 M to 10^-5 M final concentration.

[4] = molecular target: human recombinant MAO-A (Homo sapiens (Human), UniProt P21397); experiment: Monoaminooxidase (MAO) activity assay, MAO-Glo luminescent method, MAO-A
human recombinant MAO-A, sequence (P21397 whole entry): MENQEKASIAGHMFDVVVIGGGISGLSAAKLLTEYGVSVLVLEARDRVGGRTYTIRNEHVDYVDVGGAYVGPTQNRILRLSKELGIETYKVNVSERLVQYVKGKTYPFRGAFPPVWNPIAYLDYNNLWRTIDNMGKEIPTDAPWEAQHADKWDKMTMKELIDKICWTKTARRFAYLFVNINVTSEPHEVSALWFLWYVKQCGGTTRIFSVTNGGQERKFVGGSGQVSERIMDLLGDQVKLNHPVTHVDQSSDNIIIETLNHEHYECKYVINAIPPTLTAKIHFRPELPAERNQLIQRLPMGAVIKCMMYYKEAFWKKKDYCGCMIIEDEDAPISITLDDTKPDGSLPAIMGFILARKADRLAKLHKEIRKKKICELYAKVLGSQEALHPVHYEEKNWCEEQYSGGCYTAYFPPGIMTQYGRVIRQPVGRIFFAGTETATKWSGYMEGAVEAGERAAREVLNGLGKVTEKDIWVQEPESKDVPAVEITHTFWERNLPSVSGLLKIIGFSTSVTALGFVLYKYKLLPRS
Protocol: Monoaminooxidase (MAO) Activity Assay.
(§1) Inhibitory activity of compounds was evaluated by a homogeneous luminescent method, the MAO-Glo™ Assay (Promega), measuring the monoamine oxidase activity (MAOs) from recombinant source (microsomes from baculovirus infected insect cells, Sigma). Experiments were performed according to the Supplier's procedure, incubating human recombinant MAO-A or MAO-B with a luminogenic substrate, a derivative of beetle luciferin ((4S)-4,5-dihydro-2-(6-hydroxybenzothiazolyl)-4-thiazolecarboxylic acid). […] The MAO-Glo™ Assay was performed in two steps:
(§2) Step 1. The MAO reaction: MAO substrate was incubated with MAO-A or MAO-B (1 μg/sample) in the absence (Total activity) or presence (modulated activity) of test compounds. Total activity was determined in the presence the appropriate solvent. […] Reaction started adding the enzyme solution and samples were incubated for 60 min at room temperature. For negative control reaction, samples of MAO reaction buffer (100 mM Hepes, 5% glycerol, pH 7.5) indeed the test compound were included. For MAO-B activity assay, MAO reaction buffer contain 10% DMSO, in order to increase enzymatic activity. Step 2. […] At the end of incubation 50 μl of Luciferin Detection reagent were added to each well, plate was incubated at room temperature for 20 min, then luminescent signal was detected by luminometer (integration time 0.25-1 sec per well). […] Net MAO-dependent luminescence (net RLU) were calculated by subtracting the average luminescence of the negative control reaction without MAO enzyme. A reduction of net signal in the presence of test compound, with respect to total activity, reflect its effect on MAOs activity. […] A percentage of inhibition for each concentration tested were calculated and the IC50 value was estimated by linear regression.

[5] = molecular target: human recombinant MAO-B (Homo sapiens (Human), UniProt P27338); experiment: Monoaminooxidase (MAO) activity assay, MAO-Glo luminescent method, MAO-B
human recombinant MAO-B, sequence (P27338 whole entry): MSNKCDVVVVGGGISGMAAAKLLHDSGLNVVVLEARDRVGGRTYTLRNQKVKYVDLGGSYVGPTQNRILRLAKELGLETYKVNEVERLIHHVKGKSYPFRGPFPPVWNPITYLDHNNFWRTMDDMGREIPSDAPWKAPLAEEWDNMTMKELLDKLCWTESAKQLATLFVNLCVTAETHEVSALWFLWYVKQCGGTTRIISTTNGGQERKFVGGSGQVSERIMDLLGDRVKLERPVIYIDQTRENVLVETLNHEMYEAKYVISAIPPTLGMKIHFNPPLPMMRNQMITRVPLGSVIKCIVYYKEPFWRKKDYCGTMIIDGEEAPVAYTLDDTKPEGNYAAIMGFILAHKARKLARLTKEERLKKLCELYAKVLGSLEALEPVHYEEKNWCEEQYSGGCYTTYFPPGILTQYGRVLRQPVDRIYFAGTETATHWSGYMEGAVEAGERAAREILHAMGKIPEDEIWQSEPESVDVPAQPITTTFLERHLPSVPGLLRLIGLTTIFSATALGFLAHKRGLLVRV
Protocol: Monoaminooxidase (MAO) Activity Assay.
as §1, §2

[6] = test system: CD1 Mice; experiment: Tail suspension test in mice; type: in vivo; settings: for ED50: oral
Protocol: Tail Suspension Test in Mice
To evaluate novel antidepressants compounds several animal models have been developed. […] The antidepressant effect of representative examples of compounds of formula (I) has been evaluated according to the procedure below. The immobility was induced according to the procedure of Stem et al. (1985). CD1 Mice (Harlan, Italy) were individually suspended 75 cm above the top with an adhesive tape placed 1 cm from the tip of the tail. Immobility duration was recorded for 5 min. Mice were considered immobile only when they hung passively and completely motionless. Compounds were given orally, 30 min before the test at doses ranging between 0.3 and 30 mg/kg. Data collected were expressed as mean percent effect (MPE), which represents the % of inhibition in immobility time between the animals treated with representative compounds of formula (I) and the controls that received only the vehicle.

[7] = read-out: MAO A activity IC50, human recombinant MAO-A, substrate 40 μM, 60 min room temperature
[8] = Table 3, dose 3 mg/Kg OS, 30 min before the test
[9] = Table 3, dose 10 mg/Kg OS, 30 min before the test
[10] = Table 3, dose 30 mg/Kg OS, 30 min before the test
[11] = Table 3, dose yielding 50% reduction of immobility

For `CN1CC[C@]23c4c5ccc(O)c4O[C@H]2[C@@H](O)C=C[C@H]3[C@H]1C5` [Morphine, reference compound], the “MPE 2 h (difference in pain threshold)” value ([1]; 2 h, Example 1 1.5 mg/Kg OS and/or Morphine 0.5 mg/Kg SC) was 42.88%, the “MPE 3 h (difference in pain threshold)” value ([1]; 3 h, Example 1 1.5 mg/Kg OS and/or Morphine 0.5 mg/Kg SC) was 30.49% and the “MPE 4 h (difference in pain threshold)” value ([1]; 4 h, Example 1 1.5 mg/Kg OS and/or Morphine 0.5 mg/Kg SC) was 15.04%.

For `COc1ccc(C(CN(C)C)C2(O)CCCCC2)cc1` (stereo not drawn) [Venlafaxine], the ED50 [2] is listed as 11.7 mg/Kg; SC.

`Cc1cn(-c2ccc3nc(-c4ccccc4)ncc3c2)cn1` [Example 4, [6-(4-methyl-1H-imidazol-1-yl)-2-phenyl]quinazoline] showed a melting point of 201.9 to 202.8 °C, an IC50 [3] of 480 nM and an IC50 [4, 7] of 2060 nM. For the same compound, the IC50 [5] was greater than 10 µM.

For `c1ccc(-c2ncc3cc(-n4ccnc4)ccc3n2)cc1` [Example 1, [6-(1H-imidazol-1-yl)-2-phenyl]quinazoline], the “antidepressant-like effect in the presence of Idazoxan” value ([6]; 0.3 mg/Kg Idazoxan, antagonist of imidazoline (I2) receptors) was “blocked”, the “MPE (% inhibition in immobility time)” value ([6]; Table 3, dose 0.3 mg/Kg OS, 30 min before the test) was 35% and the “MPE (% inhibition in immobility time)” value ([6]; Table 3, dose 1 mg/Kg OS, 30 min before the test) was 38%. For the same compound, the “MPE (% inhibition in immobility time)” value [6, 8] was 40%, the “MPE (% inhibition in immobility time)” value [6, 9] was 66% and the “MPE (% inhibition in immobility time)” value [6, 10] was 84%. The ED50 [6, 11] was 4.8 mg/Kg; OS, the “MPE (% inhibition in immobility time)” value ([6]; Table 4, Example 1 dose 3 mg/Kg OS, alone or with Idazoxan 0.3 mg/Kg IP) was 43% and the “MPE (% inhibition in immobility time)” value ([6]; Table 4, Example 1 dose 10 mg/Kg OS, alone or with Idazoxan 0.3 mg/Kg IP) was 54%. For the same compound, the “MPE (% inhibition in immobility time)” value ([6]; Table 4, Example 1 dose 30 mg/Kg OS, alone or with Idazoxan 0.3 mg/Kg IP) was 97%, the ED50 ([6]; Table 4) was 5.1 mg/Kg; OS and the IC50 [3] was 680 nM. For the same compound, the IC50 [4, 7] was 220 nM, the IC50 [5] was greater than 10 µM and the “MPE 2 h (difference in pain threshold)” value ([1]; rat, in vivo) was 17.19%. For the same compound, the “MPE 3 h (difference in pain threshold)” value ([1]; rat, in vivo) was 6.61% and the “MPE 4 h (difference in pain threshold)” value ([1]; rat, in vivo) was 2.46%.

`c1ccc2c(c1)OCC(C1=NCCN1)O2` (stereo not drawn) [Idazoxan, reference compound] gave an IC50 [3] of 11 nM, an IC50 [4] greater than 1000 nM and an IC50 [5] greater than 1 µM.

For `COc1ccc(-c2ccc3cc(-n4ccnc4)ccc3n2)cc1` [Example 18, [6-(1H-imidazol-1-yl)-2-(4-methoxyphenyl)]quinoline dihydrochloride], the IC50 [3] was 1900 nM, the IC50 [4, 7] was 670 nM and the IC50 [5] was greater than 10 µM.

In the case of `Fc1ccc(-c2ccc3cc(-n4ccnc4)ccc3n2)cc1` [Example 21, [6-(1H-imidazol-1-yl)-2-(4-fluorophenyl)]quinoline dihydrochloride], the “MPE (% inhibition in immobility time)” value [6, 8] is reported as 36%, the “MPE (% inhibition in immobility time)” value [6, 9] is reported as 72% and the “MPE (% inhibition in immobility time)” value [6, 10] is reported as 89%. The ED50 [6, 11] was 4.9 mg/Kg; OS, the IC50 [3] was 240 nM and the IC50 [4] was greater than 10000 nM. For the same compound, the IC50 [5] was greater than 10 µM.

`CN(C)c1ccc(-c2ccc3cc(-n4ccnc4)ccc3n2)cc1` [Example 22, [6-(1H-imidazol-1-yl)-2-(4-dimethylaminophenyl)]quinoline trihydrochloride] gave an IC50 [3] of 3780 nM, an IC50 [4, 7] of 2090 nM and an IC50 ([5]; read-out: MAO B activity IC50, human recombinant MAO-B, substrate 4 μM, 60 min room temperature) of 1.49 µM.

For `CN(C)CCCC1(c2ccc(F)cc2)OCc2cc(C#N)ccc21` (stereo not drawn) [Citalopram], the ED50 [2] is listed as 8.8 mg/Kg; SC.

In the case of `c1cn(-c2ccc3nc(-c4ccc5c(c4)OCO5)ccc3c2)cn1` [Example 16, [6-(1H-imidazol-1-yl)-2-(1,3-benzodioxol-5-yl)]quinoline dihydrochloride], the “MPE (% inhibition in immobility time)” value [6, 8] is reported as 41%, the “MPE (% inhibition in immobility time)” value [6, 9] is reported as 66% and the “MPE (% inhibition in immobility time)” value [6, 10] is reported as 100%. For the same compound, the ED50 [6, 11] was 4.6 mg/Kg; OS, the IC50 [3] was 190 nM and the IC50 [4] was greater than 10000 nM. It also gave an IC50 [5] greater than 10 µM.

With `COc1ccccc1-c1ncc2cc(-n3cnc(C)c3)ccc2n1` [Example 7, [6-(4-methyl-1H-imidazol-1-yl)-2-(2-methoxyphenyl)]quinazoline] the melting point was 160.6 to 162 °C, the IC50 [3] was 2180 nM and the IC50 [4] was greater than 10000 nM. The IC50 [5] was greater than 10 µM.

For `c1cn(-c2ccc3nc(-c4ccc5occc5c4)ncc3c2)cn1` [Example 14, [6-(1H-imidazol-1-yl)-2-(benzofuran-5-yl)-]quinazoline dihydrochloride trihydrate], the IC50 [3] was 610 nM, the IC50 [4, 7] was 350 nM and the IC50 [5] was greater than 10 µM.

For `CCOc1ccccc1OC(c1ccccc1)C1CNCCO1` (stereo not drawn) [Reboxetine], the ED50 [2] is listed as 4.2 mg/Kg; SC.

With `Cc1cncn1-c1ccc2nc(-c3ccccc3)ncc2c1` [Example 5, [6-(5-methyl-1H-imidazol-1-yl)-2-phenyl]quinazoline] the “MPE (% inhibition in immobility time)” value [6, 8] was 41%, the “MPE (% inhibition in immobility time)” value [6, 9] was 61% and the “MPE (% inhibition in immobility time)” value [6, 10] was 91%. The ED50 [6, 11] was 4.9 mg/Kg; OS, the IC50 [3] was 1180 nM and the IC50 [4] was greater than 10000 nM. The IC50 [5] was greater than 10 µM.

Work on `Cc1cc(OC(F)(F)F)ccc1-c1ccc2cc(-n3ccnc3)ccc2n1` [Example 24, [6-(1H-imidazol-1-yl)-2-(2-methyl-4-trifluoromethoxyphenyl)]quinoline dihydrochloride] yielded an IC50 [3] of 1140 nM, an IC50 [4, 7] of 280 nM and an IC50 [5] greater than 10 µM.

In the case of `Cc1cn(-c2ccc3nc(-c4ccc5c(c4)OCO5)ncc3c2)cn1` [Example 9, [6-(4-methyl-1H-imidazol-1-yl)-2-(1,3-benzodioxol-5-yl)]quinazoline], the IC50 [3] is reported as 1040 nM, the IC50 [4] is reported as greater than 10000 nM and the IC50 [5] is reported as greater than 10 µM.

In the case of `COc1ccc(-c2ncc3cc(-n4cnc(C)c4)ccc3n2)cc1` [Example 6, [6-(4-methyl-1H-imidazol-1-yl)-2-(4-methoxyphenyl)]quinazoline], the IC50 [3] is reported as 1160 nM, the IC50 [4] is reported as greater than 10000 nM and the IC50 [5] is reported as greater than 10 µM.

In the case of `Cc1nccn1-c1ccc2nc(-c3ccccc3)ncc2c1` [Example 2, [6-(2-methyl-1H-imidazol-1-yl)-2-phenyl]quinazoline], the “MPE (% inhibition in immobility time)” value [6, 8] is reported as 17%, the “MPE (% inhibition in immobility time)” value [6, 9] is reported as 77% and the “MPE (% inhibition in immobility time)” value [6, 10] is reported as 83%. The ED50 [6, 11] was 7.1 mg/Kg; OS, the melting point was 198.3 to 200.3 °C and the IC50 [3] was 2400 nM. It also gave an IC50 [4] greater than 10000 nM and an IC50 [5] greater than 10 µM.

For `c1cn(-c2ccc3nc(-c4ccc5c(c4)OCO5)ncc3c2)cn1` [Example 13, [6-(1H-imidazol-1-yl)-2-(1,3-benzodioxol-5-yl)]quinazoline], the IC50 [3] was 1340 nM, the IC50 [4, 7] was 10000 nM and the IC50 [5] was greater than 10 µM.

`N=C(N)NCCCCN` [Agmatine, reference compound] gave an IC50 [3] greater than 10000 nM, an IC50 [4] greater than 100000 nM and an IC50 [5] greater than 100 µM.
